Consider eleven compounds from PubChem BioAssay (NCI).

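Compound exposure: 48 hours, 5 concentrations, 96-well plates. GI50 marks 50% less growth. TGI: concentration producing complete growth inhibition.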

Among the test systems are SK-MEL-5 melanoma; MALME-3M melanoma; RPMI-8226 leukemia; TK-10 renal; HL-60(TB) leukemia; SK-MEL-28 melanoma; 786-0 renal; UO-31 renal; A498 renal.
Common to all, as to assay: NCI tumour cell line growth inhibition, 48 h

For the compound `O=C(Nc1cc(Cl)ccc1Cl)c1cc2ccccc2oc1=O`, the TGI was over 100 µM in the test on SK-MEL-5 melanoma; 90.3 µM with MALME-3M melanoma; over 100 µM in the test on RPMI-8226 leukemia; over 100 µM in the test with TK-10 renal; over 100 µM in the test with HL-60(TB) leukemia; over 100 µM in the test with SK-MEL-28 melanoma. The TGI in the test with 786-0 renal was over 100 µM.

For `C=C1C(=O)O[C@H]2[C@H]1CC/C(COC(=O)NCc1ccc(Cn3c(=O)sn(CCCI)c3=O)cc1)=C\CC[C@@]1(C)O[C@@H]21`, the GI50 in the test with UO-31 renal is 1.52 µM; in the test with SK-MEL-5 melanoma it was 1.91 µM; with MALME-3M melanoma, 1.39 µM; in the test on RPMI-8226 leukemia, 0.899 µM; in the test on TK-10 renal, 1.71 µM; in the test with HL-60(TB) leukemia, 0.307 µM. Moreover, the GI50 is 4.85 µM in the test on A498 renal, 1.92 µM in the test with SK-MEL-28 melanoma and 1.68 µM with 786-0 renal. For the same compound, the TGI in the test on UO-31 renal turned out to be 2.94 µM; in the test on SK-MEL-5 melanoma it was 3.55 µM; with MALME-3M melanoma, 3.21 µM; with RPMI-8226 leukemia it was 3.57 µM; in the test with TK-10 renal, 3.35 µM; with HL-60(TB) leukemia it was 2.71 µM. Moreover, the results for the TGI with A498 renal, with SK-MEL-28 melanoma and with 786-0 renal were 16.8 µM, 3.79 µM and 3.71 µM, respectively.

For `BrC(/C=N/Nc1nnc(-c2ccccc2)c(-c2ccccc2)n1)C(Br)c1ccccc1` (stereo not given), the TGI with UO-31 renal is 60.5 µM; with SK-MEL-5 melanoma, 57.9 µM; with MALME-3M melanoma it was over 100 µM; in the test on RPMI-8226 leukemia, 70.7 µM; with TK-10 renal, over 100 µM; in the test on HL-60(TB) leukemia it was 79.5 µM. In addition, the TGI in the test with A498 renal, in the test on SK-MEL-28 melanoma and in the test with 786-0 renal was over 100 µM each time.

In the case of `COc1ccc2c(c1)c(-c1nc(-c3cn(C)c4ncccc34)cs1)cn2CCCCN1CCCCC1`, the GI50 in the test with UO-31 renal is 1.43 µM; in the test with SK-MEL-5 melanoma, 1.71 µM; in the test with TK-10 renal, 1.53 µM; in the test on A498 renal, 1.66 µM; in the test with SK-MEL-28 melanoma, 1.74 µM; in the test on 786-0 renal it was 1.61 µM. Further, the TGI in the test with UO-31 renal was 2.77 µM; in the test with SK-MEL-5 melanoma, 3.08 µM; in the test on TK-10 renal it was 2.95 µM; in the test with A498 renal, 3.11 µM; in the test on SK-MEL-28 melanoma it was 3.16 µM; in the test on 786-0 renal it was 3.06 µM.

Turning to `O=c1[nH]c(-c2ccncc2)nc2sc3c(c12)CCCCCC3`, the GI50 in the test on UO-31 renal, with SK-MEL-5 melanoma, with MALME-3M melanoma, with RPMI-8226 leukemia, with TK-10 renal and with HL-60(TB) leukemia was over 100 µM throughout. For the same compound, the GI50 with A498 renal, in the test on SK-MEL-28 melanoma and in the test with 786-0 renal was over 100 µM each time. For the same compound, the TGI in the test with UO-31 renal, with SK-MEL-5 melanoma, with MALME-3M melanoma, in the test on RPMI-8226 leukemia, in the test with TK-10 renal and in the test with HL-60(TB) leukemia was over 100 µM each time. Also, the TGI in the test on A498 renal, in the test on SK-MEL-28 melanoma and in the test on 786-0 renal was over 100 µM in each case.

With `Cc1nc2ccccc2c(=O)n1/N=C(\N=Nc1ccc(Cl)cc1)c1ccc(N(C)C)cc1`, the TGI in the test on UO-31 renal, in the test on SK-MEL-5 melanoma, in the test with TK-10 renal, in the test on A498 renal, in the test on SK-MEL-28 melanoma and with 786-0 renal was over 100 µM in each case.

Take `CCCCP1(=O)C=CC(Cl)=C(C)C1` (stereo not given): the TGI in the test with UO-31 renal, in the test on SK-MEL-5 melanoma, in the test on MALME-3M melanoma, in the test on TK-10 renal, in the test with HL-60(TB) leukemia and in the test on A498 renal was over 100 µM throughout. The TGI in the test on SK-MEL-28 melanoma and in the test on 786-0 renal was over 100 µM in each case.

Regarding `C/C(=N\NC(N)=S)c1ccc(Oc2ccccc2)cc1`, the TGI with SK-MEL-5 melanoma came out at 18.8 µM; in the test with RPMI-8226 leukemia it was 10.9 µM; in the test on TK-10 renal, 21.8 µM; in the test on HL-60(TB) leukemia it was 23 µM; with A498 renal, 29.5 µM; in the test on SK-MEL-28 melanoma it was 33.2 µM. In the test on 786-0 renal, this compound gave a TGI of 14.5 µM.

`Cc1nn(-c2ccccc2)c2c1[C@@H](C)[C@H]1CC3(CC4(C)C[C@@H]3C1(C)c1c(C)nn(-c3ccccc3)c1N4C)N2C` (stereo not given in full): the GI50 in the test on MALME-3M melanoma is over 100 µM; with TK-10 renal, over 100 µM; in the test with A498 renal, over 100 µM; in the test on SK-MEL-28 melanoma, 31.4 µM; in the test with 786-0 renal, over 100 µM. Also, the TGI with MALME-3M melanoma, in the test on TK-10 renal, in the test on A498 renal, with SK-MEL-28 melanoma and with 786-0 renal was over 100 µM each time.

`O=C(CC1(O)C(=O)Nc2ccc(Br)cc21)c1cccc([N+](=O)[O-])c1` (stereo not given): the TGI in the test on UO-31 renal was over 100 µM; with MALME-3M melanoma, over 100 µM; in the test with RPMI-8226 leukemia, 57.9 µM; with TK-10 renal, over 100 µM; with HL-60(TB) leukemia it was 67.3 µM; in the test with SK-MEL-28 melanoma, over 100 µM. Moreover, the TGI in the test with 786-0 renal was over 100 µM.

Turning to `O=C(/C=C/c1c[nH]c2ccccc12)c1ccccc1O`, the TGI with UO-31 renal was 17.6 µM; in the test with MALME-3M melanoma, 29.3 µM; in the test on RPMI-8226 leukemia, 62.1 µM; with TK-10 renal, 32.8 µM; in the test on HL-60(TB) leukemia it was over 100 µM; with A498 renal it was 28.5 µM. Besides, the TGI came to 47.6 µM in the test with SK-MEL-28 melanoma and 25.5 µM with 786-0 renal.
